# Tests used:
# [1] = tested on: human embryonic stem cells; assay: Cell count of stem cells in high-density monolayer culture; type: cell-based; settings: DMSO, CHIR or CHIR+rapamycin; 5×10^4/cm^2, days 1-4
# Description: The correlated detection was performed under three treatment conditions of DMSO, CHIR and CHIR+rapamycin. […] (Due to the replacement of the culture medium on the 4th day, stem cells underwent massive death because of the rapid changes in the environment).
# [2] = tested on: stem cells; assay: Annexin V/PI staining of apoptosis and cell death; type: cell-based, human
# Description: Annexin V/PI staining: Annexin V/PI kit (Roche) was used in this experiment. The cells were cultured in 24-well plates. At the specified time, the cells were digested into single cells with accutase and washed once with PBS. The cells were incubated with staining solution containing Annexin V and PI for 10 minutes. Care was taken to avoid light. 5 volumes of incubation solution was added to dilute thereby stopping the reaction and tested by flow cytometry immediately, the excitation lights were 488 nm and 518 nm, the emission lights were 488-540 nm and 617 nm.
# [3] = tested on: stem cells; assay: Cell cycle analysis and BrdU cell proliferation assay; type: cell-based, human; settings: compared with DMSO control group
# Description: After 10 μM BrdU (Sigma-Aldrich) was added to incubate the cells for 1 hour, cells were harvested, digested and centrifuged at 300 g for 5 minutes. Cells were collected, washed once with PBS containing 0.5% BSA (wash solution) at room temperature, and resuspended in 1 ml of PBS. 3 ml of pre-cooled ethanol was added with shaking and settled for 20 minutes at room temperature. Centrifuge to remove the supernatant, wash once with PBS, centrifuge to remove supernatant, loosen the pellet by flicking a few times, add 1 ml of the freshly prepared denaturation solution (2M HCl) and mix. Allow to stand at room temperature for 20 minutes; add 1 ml of 0.1 M sodium borate (pH 8.5) to neutralize for 2 minutes at room temperature; rinse once and add anti-BrdU antibody (BD Biosciences 1:50 dilution) prepared with PBS containing 0.5% Tween 20/0.5% BSA (Sigma-Aldrich); aspirate primary antibody, rinse with 1 ml wash solution, add Alexa-488-anti-mouse (1:1000), incubate for 20 minutes at room temperature; aspirate secondary antibody, rinse again, resuspend with 0.5 ml 10 μg/ml PI solution and incubate for 30 minutes at room temperature. The supernatant was removed by centrifugation, rinsed again with a wash solution, and tested with flow cytometry.
# [4] = tested on: Parp; assay: Western blot of Parp cleavage; type: cell-based, human; settings: first 4 days of treatment
# Description: Wherein figure (A and B) show the influence of different small molecules on proliferation rate of the stem cells by means of cell cycle analysis and BrdU proliferation detection. (C) Western blot analysis of intracellular Parp protein cleavage to estimate cell death under different treatment. (D) Influence of rapamycin on activity of apoptosis executive caspase 3/7 determined by luciferase reporter system. (E) Detection of the proportion of cell death treated with or without rapamycin by Annexin V/PI staining at the end of the culture on day 3 and day 4. […] All the results are statistically analyzed for at least 3 independently repeated experiments (* P<0.05, ** P<0.01).
# Caspase 3, 6, and 7 are the execution proteins of apoptosis and are mainly responsible for the cleavage of structural proteins and regulatory proteins in the nucleus and cytoplasm.
structure (smiles),measurement,setting,value
Cc1c[nH]c(-c2cnc(NCCNc3ccc(C#N)cn3)nc2-c2ccc(Cl)cc2Cl)n1 [CHIR99021],stem cell number,[1],accelerated the increase in stem cell number in the first 3 days
same,proportion of cell death,"[2]; 4th day, 24 hours after replacing with RPMI/B27 differentiation medium",nearly half
same,Annexin V-positive apoptotic cells,[2]; end of culture on the third day,25.8%
same,proportion of cells in S phase and proportion of BrdU positive cells,[3],slightly increased
same,Parp cleavage band,[4],gradually increased
